This is an account of results in US8247573B2, “Substituted N-(2-mercaptopyridin-3-yl)amides as KCNQ2/3 modulators” (Gruenenthal GmbH, priority 2009, dated 2012).

The target of this experiment is T1, KCNQ2/3 channels (Homo sapiens, UniProt O43525+O43526).
T1 construct: expressed in transfected cells; host or cells: CHO-K1
Briefly: Fluorescence assay using a voltage-sensitive dye (fluorimetry). It is filed as cell-based. As to conditions: CHO-K1 cells expressing KCNQ2/3; for Emax: read-out: Fluorimetry % efficacy (I/EC50, retigabine = 100%); for EC50: agonistic activity. The protocol: Pharmacological Experiments Fluorescence Assay Using a Voltage-Sensitive Dye
Human CHO-K1 cells expressing KCNQ2/3 channels are cultivated adherently at 37° C., 5% CO2 and 95% humidity in cell culture bottles (e.g. 80 cm^2 TC flasks, Nunc) with DMEM-high glucose (Sigma Aldrich, D7777) including 10% FCS (PAN Biotech, e.g. 3302-P270521) or alternatively MEM Alpha Medium (1×, liquid, Invitrogen, #22571), 10% foetal calf serum (FCS) (Invitrogen, #10270-106, heat-inactivated) and the necessary selection antibiotics.
Before being seeded out for the measurements, the cells are washed with a 1×DPBS buffer without Ca^2+/Mg^2+ (e.g. Invitrogen, #14190-094) and detached from the bottom of the culture vessel by means of Accutase (PAA Laboratories, #L11-007) (incubation with Accutase for 15 min at 37° C.). The cell count then present is determined using a CASY™ cell counter (TCC model, Schärfe System) in order subsequently to apply 20,000 to 30,000 cells/well/100 μl of the described nutrient medium, depending on density optimisation for the individual cell line, to 96-well measuring plates of the Corning™ CellBIND™ type (flat clear-bottom black polystyrene microplates, #3340). Incubation is then carried out for one hour at room temperature, without gassing or adjusting the humidity, followed by incubation for 24 hours at 37° C., 5% CO2 and 95% humidity.
The voltage-sensitive fluorescent dye from the Membrane Potential Assay Kit (Red™ bulk format part R8123 for FLIPR, MDS Analytical Technologies™) is prepared by dissolving the contents of a vessel of Membrane Potential Assay Kit Red Component A in 200 ml of extracellular buffer (ES buffer, 120 mM NaCl, 1 mM KCl, 10 mM HEPES, 2 mM CaCl2, 2 mM MgCl2, 10 mM glucose; pH 7.4). After removal of the nutrient medium, the cells are washed with 200 μl of ES buffer, then covered with a layer of 100 μl of the dye solution prepared above and incubated for 45 min at room temperature with exclusion of light.
The fluorescence measurements are carried out with a BMG Labtech FLUOstar™, BMG Labtech NOVOstar™ or BMG Labtech POLARstar™ instrument (525 nm excitation, 560 nm emission, bottom-read mode). After incubation of the dye, 50 μl of the substances to be tested in the desired concentrations, or 50 μl of ES buffer for control purposes, are introduced into separate cavities of the measuring plate and incubated for 30 min at room temperature whilst being shielded from light. The fluorescence intensity of the dye is then measured for 5 min and the fluorescence value F1 of each well is thus determined at a given, constant time. 15 μl of a […] KCl solution […] are then added to each well. The change in fluorescence is subsequently measured until all relevant measured values have been obtained (mainly […]). At a given time after KCl application, a fluorescence value F2 is determined, in this case at the time of the fluorescence peak.
For calculation, the fluorescence intensity F2 is compared with the fluorescence intensity F1, and the agonistic activity of the target compound on the potassium channel is determined therefrom. F2 and F1 are calculated as follows: […]
In order to determine whether a substance has an agonistic activity,
[formula] is determined by adding to the reaction batch only the buffer solution instead of the substance to be tested, determining the value F1K of the fluorescence intensity, adding the potassium ions as described above and measuring a value F2K of the fluorescence intensity. Then F2K and F1K are calculated as follows: […]
A substance has an agonistic activity on the potassium channel if
Independently of the comparison of
[formula] it is also possible to conclude that a target compound has an agonistic activity if an increase in
[formula] is to be observed as the dosage of the target compound increases.
Calculations of EC50 values are carried out with the aid of Prism v4.0 software (GraphPad Softwares™).

Setting [1] is: relative to retigabine = 100%, negative values = antagonistic.

On to `O=C(Cc1cccc(O)c1)Nc1cccnc1SCCS(=O)(=O)c1cccc(C(F)(F)F)c1` [Example 37, 2-(3-Hydroxyphenyl)-N-[2-[2-[[3-(trifluoromethyl)phenyl]sulfonyl]-ethylsulfanyl]-pyridin-3-yl]acetamide], for which the Emax under setting [1] was found to be 31%. For orientation: EC50 means the concentration giving half of the maximal effect. Higher therefore signals a need for much substance. For `O=C(CCc1cccs1)Nc1cccnc1SCCS(=O)(=O)c1cccc(C(F)(F)F)c1` [Example 26, 3-Thiophen-2-yl-N-[2-[2-[[3-(trifluoromethyl)phenyl]sulfonyl]-ethylsulfanyl]-pyridin-3-yl]propionamide], the half-maximal effective concentration (EC50) came to 123 nM. Moreover, the Emax under setting [1] was 82%.

`O=C(Cc1cccs1)Nc1cccnc1SCCSc1cccc(C(F)(F)F)c1` [Example 20, 2-Thiophen-2-yl-N-[2-[2-[[3-(trifluoromethyl)phenyl]sulfanyl]-ethylsulfanyl]-pyridin-3-yl]acetamide] yielded an EC50 of 180 nM. Also, under setting [1], the Emax was found to be 97%. On to `O=C(CC1CCCCCC1)Nc1cccnc1SCCS(=O)(=O)c1cccc(C(F)(F)F)c1` [Example 49, 2-Cycloheptyl-N-[2-[2-[[3-(trifluoromethyl)phenyl]sulfonyl]-ethylsulfanyl]-pyridin-3-yl]acetamide], for which a half-maximal response (EC50) required 19 nM. Under setting [1], the Emax amounted to 108%. For the molecule `O=C(Nc1cccnc1SCCS(=O)(=O)c1cccc(C(F)(F)F)c1)C1CCCCC1` [Example 19, N-[2-[2-[[3-(Trifluoromethyl)phenyl]sulfonyl]-ethylsulfanyl]-pyridin-3-yl]-cyclohexane carboxylic acid amide], the Emax under setting [1] is -43%.

Take `O=C(Cc1cccs1)Nc1cccnc1SCCOc1ccccc1` [Example 45, N-[2-(2-Phenoxy-ethylsulfanyl)-pyridin-3-yl]-2-thiophen-2-yl acetamide]: the “Fluorimetry % efficacy (I/EC50, retigabine = 100%)” value under setting [1] stood at 58%.

Regarding `O=C(CCCc1ccccc1)Nc1cccnc1SCCS(=O)(=O)c1cccc(C(F)(F)F)c1` [Example 25, 4-Phenyl-N-[2-[2-[[3-(trifluoromethyl)phenyl]sulfonyl]-ethylsulfanyl]-pyridin-3-yl]-butyramide], the concentration giving a half-maximal response (EC50) was found to be 71 nM. Moreover, the Emax under setting [1] was found to be 170%.

In turn, `O=C(CC1CCCC1)Nc1cccnc1SCCS(=O)(=O)c1cccc(C(F)(F)F)c1` [Example 14, 2-Cyclopentyl-N-[2-[2-[[3-(trifluoromethyl)phenyl]sulfonyl]-ethylsulfanyl]-pyridin-3-yl]acetamide] yielded an EC50 of 45 nM. Under setting [1], the Emax came out at 167%. Consider `CC(C)(C)CC(=O)Nc1cccnc1SCCOc1ccc(F)cc1` [Example 63, N-[2-[2-(4-Fluorophenoxy)-ethylsulfanyl]-pyridin-3-yl]-3,3-dimethyl butyramide], for which the EC50 amounted to 546 nM. In addition, the Emax under setting [1] worked out at 119%. For `CC(C)(C)CC(=O)Nc1cccnc1SCCSc1ccc(F)cc1` [Example 61, N-[2-[2-[(4-Fluorophenyl)sulfanyl]-ethylsulfanyl]-pyridin-3-yl]-3,3-dimethyl butyramide], in that order: 27.5 nM and 129%. Broadly, the IC50 is the point on the concentration scale where inhibition reaches its midpoint. For the setting “antagonistic activity”, `COc1ccccc1CC(=O)Nc1cccnc1SCCS(=O)(=O)c1cccc(C(F)(F)F)c1` [Example 9, 2-(2-Methoxyphenyl)-N-[2-[2-[[3-(trifluoromethyl)phenyl]sulfonyl]-ethylsulfanyl]-pyridin-3-yl]acetamide] came in with an IC50 of 192 nM. Further, under setting [1], the Emax was -45%.

`O=C(Nc1cccnc1SCCS(=O)(=O)c1cccc(C(F)(F)F)c1)c1ccccc1O` [Example 53, 2-Hydroxy-N-[2-[2-[[3-(trifluoromethyl)phenyl]sulfonyl]-ethylsulfanyl]-pyridin-3-yl]benzamide]: the Emax under setting [1] came to 27.4%. `O=C(CC1CCCCCC1)Nc1cccnc1SCCS(=O)(=O)c1ccc(F)cc1` [Example 67, 2-Cycloheptyl-N-[2-[2-[(4-fluorophenyl)sulfonyl]-ethylsulfanyl]-pyridin-3-yl]acetamide] came in with a concentration for a half-maximal effect (EC50) of 18 nM. Further, the Emax under setting [1] worked out at 114%.

Molecule `O=C(CC1CC2CCC1C2)Nc1cccnc1SCCS(=O)(=O)c1cccc(C(F)(F)F)c1` (centres unmarked) [Example 62, 2-(5-Bicyclo[2.2.1]heptanyl)-N-[2-[2-[[3-(trifluoromethyl)phenyl]sulfonyl]-ethylsulfanyl]-pyridin-3-yl]acetamide] showed a concentration for a half-maximal effect (EC50) of 23.5 nM. The Emax under setting [1] was 168%. For `O=C(Cc1ccccn1)Nc1cccnc1SCCS(=O)(=O)c1cccc(C(F)(F)F)c1` [Example 60, 2-Pyridin-2-yl-N-[2-[2-[[3-(trifluoromethyl)phenyl]sulfonyl]-ethylsulfanyl]-pyridin-3-yl]acetamide], in that order: 1020 nM and 101%. For `O=C(Cc1cccs1)Nc1cccnc1SCCCc1cccc(C(F)(F)F)c1` [Example 23, 2-Thiophen-2-yl-N-[2-[3-[3-(trifluoromethyl)phenyl]-propylsulfanyl]-pyridin-3-yl]acetamide], in that order: 157 nM and 165%. For `O=C(CC1CCCCC1)Nc1cccnc1SCCS(=O)(=O)c1cccc(C(F)(F)F)c1` [Example 2, 2-Cyclohexyl-N-[2-[2-[[3-(trifluoromethyl)phenyl]sulfonyl]-ethylsulfanyl]-pyridin-3-yl]acetamide], in that order: 27 nM and 142%. In turn, `O=C(Nc1cccnc1SCCS(=O)(=O)c1cccc(C(F)(F)F)c1)C1CCCCO1` (centres unmarked) [Example 48, N-[2-[2-[[3-(Trifluoromethyl)phenyl]sulfonyl]-ethylsulfanyl]-pyridin-3-yl]-tetrahydropyrane-2-carboxylic acid amide] had an EC50 of 174 nM. For the same molecule, the Emax under setting [1] worked out at 93%. Turning to `O=C(Cc1cccnc1)Nc1cccnc1SCCS(=O)(=O)c1cccc(C(F)(F)F)c1` [Example 46, 2-Pyridin-3-yl-N-[2-[2-[[3-(trifluoromethyl)phenyl]sulfonyl]-ethylsulfanyl]-pyridin-3-yl]acetamide], the Emax under setting [1] amounted to 50%. For the molecule `O=C(Cc1cccs1)Nc1cccnc1SCCCc1ccccc1` [Example 33, N-[2-(3-Phenyl-propylsulfanyl)-pyridin-3-yl]-2-thiophen-2-yl acetamide], the response was half-maximal at 141 nM (EC50). For the same molecule, the Emax under setting [1] was 106%. As for `O=C(Nc1cccnc1SCCS(=O)(=O)c1ccccc1)c1ccccc1` [Example 4, N-[2-[2-(Benzenesulfonyl)-ethylsulfanyl]-pyridin-3-yl]benzamide], under setting [1], the Emax was found to be 55%.

Take `Cc1ccnc(SCCS(=O)(=O)c2cccc(C(F)(F)F)c2)c1NC(=O)Cc1cccs1` [Example 56, N-[4-Methyl-2-[2-[[3-(trifluoromethyl)phenyl]sulfonyl]-ethylsulfanyl]-pyridin-3-yl]-2-thiophen-2-yl acetamide]: the concentration giving a half-maximal response (EC50) stood at 349 nM. Further, the Emax under setting [1] was 98.1%.

`O=C1CCCC(CC(=O)Nc2cccnc2SCCS(=O)(=O)c2cccc(C(F)(F)F)c2)C1` (centres unmarked) [Example 55, 2-(3-Oxocyclohexyl)-N-[2-[2-[[3-(trifluoromethyl)phenyl]sulfonyl]-ethylsulfanyl]-pyridin-3-yl]acetamide]: the EC50 was determined as 3600 nM. Further, the Emax under setting [1] turned out to be 84.8%. For `O=C(Nc1cccnc1SCCS(=O)(=O)c1cccc(C(F)(F)F)c1)C1CCCOC1` (centres unmarked) [Example 38, N-[2-[2-[[3-(Trifluoromethyl)phenyl]sulfonyl]-ethylsulfanyl]-pyridin-3-yl]-tetrahydropyrane-3-carboxylic acid amide], under setting [1], the Emax is 35%.
